Measurements published in PubChem BioAssay (NCI).
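Cells were grown in 96-well plates and exposed to each compound for 48 hours at five concentrations; endpoints were interpolated linearly between bracketing concentrations, or set to the highest concentration if not reached. Definition used: TGI = concentration required for complete inhibition of growth.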

Columns and labels:
Experiment in all cases: NCI tumour cell line growth inhibition, 48 h
MDA-MB-231 breast = system: MDA-MB-231 breast
COLO 205 colon = system: COLO 205 colon
UO-31 renal = system: UO-31 renal
A498 renal = system: A498 renal
RPMI-8226 leukemia = system: RPMI-8226 leukemia
MCF7 breast = system: MCF7 breast
M14 melanoma = system: M14 melanoma
NCI-H226 lung = system: NCI-H226 lung
SNB-19 CNS = system: SNB-19 CNS
NCI-H522 lung = system: NCI-H522 lung
K-562 leukemia = system: K-562 leukemia

SMILES	TGI (MDA-MB-231 breast)	TGI (COLO 205 colon)	TGI (UO-31 renal)	TGI (A498 renal)	TGI (RPMI-8226 leukemia)	TGI (MCF7 breast)	TGI (M14 melanoma)	TGI (NCI-H226 lung)	TGI (SNB-19 CNS)	TGI (NCI-H522 lung)	TGI (K-562 leukemia)
CCCCCCCCCCCCCCCCNc1ccn(C2CC(OP(=O)(O)OCC3OC(n4cc(CC)c(=O)[nH]c4=O)CC3O)C(CO)O2)c(=O)n1 (stereo unspecified)	68.3 µM	92.4 µM	53 µM	> 100 µM	38.8 µM	> 100 µM	33.2 µM	> 100 µM	31.7 µM	> 100 µM	44.9 µM
O=C(NC/C=C/Br)NC1CCNc2ccccc21 (stereo unspecified)	> 100 µM	37.7 µM	62.6 µM	70.4 µM	58.7 µM	47.9 µM	34.5 µM	> 100 µM	> 100 µM	> 100 µM	> 100 µM
COc1ccc(C2NC(=O)Nc3c2c(=O)oc2c3ccc3ccccc32)cc1 (stereo unspecified)	> 100 µM	> 100 µM	> 100 µM	> 100 µM	> 100 µM	> 100 µM	> 100 µM	96.9 µM	> 100 µM	> 100 µM	> 100 µM
S=C(Nc1ccc2c(c1)Cc1ccccc1-2)Nc1ccc2c(c1)Cc1ccccc1-2	> 100 µM	> 100 µM	> 100 µM	> 100 µM	> 100 µM	> 100 µM	> 100 µM	> 100 µM	> 100 µM	> 100 µM	74.5 µM
Oc1ccc2ccccc2c1OCc1nnc(CCCCCCCCc2nnc(COc3c(O)ccc4ccccc34)o2)o1	> 100 µM	> 100 µM	> 100 µM	> 100 µM	> 100 µM	> 100 µM	> 100 µM	> 100 µM	> 100 µM	> 100 µM	> 100 µM
O=c1oc2ccccc2c(O)c1Cc1cccc(Cc2c(O)c3ccccc3oc2=O)c1	> 100 µM	> 100 µM	> 100 µM	> 100 µM	> 100 µM	> 100 µM	> 100 µM	> 100 µM	> 100 µM	> 100 µM	> 100 µM
COc1ccc(NC(=S)NNC(=O)c2cc(-c3ccccc3)nc3ccccc23)cc1	51.2 µM	97.4 µM	26.3 µM	35.1 µM	43.2 µM	17 µM	31.9 µM	42.8 µM	> 100 µM	50.7 µM	46.5 µM
CSc1ccccc1P(CCP(c1ccccc1SC)c1ccccc1SC)c1ccccc1SC	> 100 µM	> 53 µM	> 90.3 µM	> 81.7 µM	> 88.1 µM	> 100 µM	> 100 µM	> 45.2 µM	> 100 µM	> 100 µM	> 100 µM
Cc1cccc2c1C(=O)[C@@](C)([C@]1(C)Nc3cccc(C)c3C1=O)N2	> 100 µM	> 100 µM	> 100 µM	> 100 µM	> 100 µM	> 100 µM	> 100 µM	> 100 µM	> 100 µM	> 100 µM	> 100 µM
C/C(=C\CNc1nc(Cl)nc2nc[nH]c12)CO	> 100 µM	> 100 µM	> 100 µM	> 100 µM	> 100 µM	> 100 µM	> 100 µM	> 100 µM	> 100 µM	> 100 µM	> 100 µM
CCCCCCCCC[n+]1cccc(C2C(C(=O)OCC)=C(C)NC(C)=C2C(=O)OCC)c1	10.9 µM	8.06 µM	31.6 µM	38.6 µM	5.28 µM	6.74 µM	7.32 µM	28.7 µM	11.2 µM	9.8 µM	43.7 µM
Cn1c(=O)c2[nH]c(CCC(=O)O)nc2n(C)c1=O	> 100 µM	> 100 µM	> 100 µM	> 100 µM	> 100 µM	> 100 µM	> 100 µM	> 100 µM	> 100 µM	> 100 µM	> 100 µM
c1ccc2c(c1)c1c3n2-c2cc(on2)C3CCC1 (stereo unspecified)	> 100 µM	> 100 µM	> 100 µM	> 100 µM	> 100 µM	> 100 µM	> 100 µM	> 100 µM	> 100 µM	> 100 µM	> 100 µM
CC(C)CC(NC(=O)C(COc1ccc([N+](=O)[O-])cc1)Cc1ccccc1)C(=O)Nc1ccccc1 (stereo unspecified)	80.3 µM	> 100 µM	24.5 µM	72.2 µM	> 100 µM	> 100 µM	60.8 µM	16.1 µM	20.2 µM	55.2 µM	> 100 µM
Nc1ccc(-c2nc3ccccc3s2)cc1	31.9 µM	45.2 µM	28.9 µM	65 µM	61.1 µM	39.4 µM	34 µM	49 µM	61.5 µM	40.1 µM	58.4 µM
COc1cc2c(cc1O)CC[C@@H]1C2CC[C@@]2(C)C1CC[C@@H]2O (stereo partly specified)	> 87.1 µM	81.3 µM	> 94.7 µM	50.4 µM	13.5 µM	> 100 µM	> 100 µM	> 100 µM	> 100 µM	6.87 µM	26.1 µM

SMILES	TGI (MDA-MB-231 breast)	TGI (COLO 205 colon)	TGI (UO-31 renal)	TGI (A498 renal)	TGI (RPMI-8226 leukemia)	TGI (MCF7 breast)	TGI (M14 melanoma)	TGI (NCI-H226 lung)	TGI (SNB-19 CNS)	TGI (NCI-H522 lung)	TGI (K-562 leukemia)
COC(=O)C1[C@H](C(=O)OC)C1(Br)CBr (stereo partly specified)	> 100 µM	> 100 µM	> 100 µM	> 100 µM	> 100 µM	> 100 µM	> 100 µM	> 100 µM	> 100 µM	> 100 µM	> 100 µM
COC1=CC(=O)c2c(cc(COP(=O)(N(C)CCBr)N(C)CCBr)n2C)C1=O	15.3 µM	2.56 µM	2.52 µM	6.12 µM	4.11 µM	8.42 µM	2.56 µM	1.43 µM	14.7 µM	2.15 µM	> 100 µM
CCOC(=O)c1cc(-c2ccn(C(C)=O)c2)c(-c2cc(C)co2)[nH]1	> 100 µM	> 100 µM	> 100 µM	> 100 µM	> 100 µM	> 100 µM	> 100 µM	> 100 µM	> 100 µM	> 100 µM	> 100 µM
C=CCn1c(=O)c2ccccc2[n+]2c(-c3cccc([N+](=O)[O-])c3)csc12	> 100 µM	98.6 µM	> 100 µM	> 100 µM	> 100 µM	> 100 µM	> 100 µM	> 100 µM	> 100 µM	> 100 µM	> 100 µM
Cc1nnc2sc(-c3ccc([N+](=O)[O-])o3)nn12	29.2 µM	27.5 µM	32.6 µM	> 100 µM	34.7 µM	26.5 µM	21.9 µM	34.5 µM	35.3 µM	14.3 µM	26.1 µM
COC(=O)C[C@H](CCSC)NC(=O)C[C@H](CCSC)NC(=O)C[C@H](CCSC)NC(=O)OC(C)(C)C	> 100 µM	> 100 µM	> 100 µM	46.4 µM	> 100 µM	> 100 µM	> 100 µM	> 100 µM	51.5 µM	> 100 µM	> 100 µM
C[C@@H]1OCC(O)C([C@H]2OC(c3ccccc3)=N[C@H]2CO)O1 (stereo partly specified)	> 100 µM	> 100 µM	> 100 µM	> 100 µM	> 100 µM	> 100 µM	> 100 µM	> 100 µM	> 100 µM	> 100 µM	> 100 µM
C/C(=C\c1ccccc1)C(=O)NCc1ccc(C(=O)NCCc2c[nH]c3ccccc23)cc1	> 100 µM	> 100 µM	> 100 µM	> 100 µM	> 100 µM	> 100 µM	> 100 µM	> 100 µM	> 100 µM	> 100 µM	> 100 µM
O=c1/c(=C/c2ccc(-c3ccc(Cl)cc3Cl)o2)sc2n1[C@@H](c1ccc3c(c1)OCO3)C=C(c1cc(F)c(Cl)cc1Cl)N=2	57.2 µM	> 100 µM	95.1 µM	6 µM	88 µM	> 100 µM	> 100 µM	> 100 µM	95.4 µM	> 100 µM	> 100 µM
COC(=O)c1c(C#C[Si](C)(C)C)c(C#C[Si](C)(C)C)c(C#C[Si](C)(C)C)c(C#C[Si](C)(C)C)c1C(=O)OC	> 100 µM	> 100 µM	> 100 µM	> 100 µM	> 100 µM	> 100 µM	> 100 µM	> 100 µM	> 100 µM	> 100 µM	> 100 µM
N#Cc1c(-c2ccc(Cl)cc2)cc(-c2nc3ccccc3[nH]2)nc1N	26.8 µM	20.1 µM	21.9 µM	22.6 µM	47.1 µM	20.1 µM	16.2 µM	28 µM	27.5 µM	35.1 µM	54.9 µM
Cc1ccc2c(=O)c(C(=O)N(CCO)CCO)c[nH]c2n1	> 100 µM	> 100 µM	> 100 µM	> 100 µM	> 100 µM	> 100 µM	> 100 µM	> 100 µM	> 100 µM	> 100 µM	> 100 µM
O=C(/C=C/c1ccccc1)CCc1c(O)c2ccccc2oc1=O	> 100 µM	> 100 µM	> 100 µM	> 100 µM	> 100 µM	> 100 µM	> 100 µM	> 100 µM	> 100 µM	> 100 µM	> 100 µM
O=C(NCc1cccnc1)C(=O)NCc1cccnc1	> 100 µM	> 100 µM	> 100 µM	> 100 µM	> 100 µM	> 100 µM	> 100 µM	> 100 µM	> 100 µM	> 100 µM	> 100 µM
COc1ccc(C2=NNC(=O)c3ccccc3N2c2nc(-c3cccs3)nc3ccc(Br)cc23)cc1	> 100 µM	> 100 µM	> 100 µM	> 100 µM	> 100 µM	> 100 µM	> 100 µM	73.7 µM	> 100 µM	> 100 µM	> 100 µM
